Test results taken from patent US12685726B2, “Sulfoximines as inhibitors of NaV1.8” (Gruenenthal GmbH, priority 2022, dated 2026).

Each compound was assayed against T1, human NaV 1.8 (Homo sapiens, UniProt Q9Y5Y9) (assay: Automated whole-cell patch clamp (Qube384) voltage-clamp recordings of sodium currents in HEK-NaV1.8 cell line). Conditions: read-out: Potency category (human NaV 1.8 IC50).
T1 construct: expressed in transfected cells; host or cells: HEK (recombinant cell line)
Format: cell-based
Protocol: Electrophysiology: Voltage-Clamp Recordings
The following NaV1.8 recombinant cell line was used for recordings: HEK-NaV1.8 (NM_006514.1) with b3 (NM_018400.3).
Sodium currents were measured using the patch clamp technique in the whole-cell configuration using the Qube384 (Sophion A/S, Copenhagen, Denmark) automated voltage clamp platform. “Multi hole” plates were used for the cell line expressing NaV1.8 while “single hole” plates were used for the recombinant cell lines expressing the other subtypes. Appropriate filters (for minimum seal resistance and minimum current size) and series resistance compensation (for high quality sodium channel recordings) were applied. Data was collected at ambient room temperature or 19° C.
The recording extracellular solution contained (in mM): NaCl 145 mM, KCl 4 mM, CaCl2 2 mM, MgCl2 1 mM, HEPES 10 mM, Glucose 10 mM, pH 7.4 (NaOH). The intracellular recording solution contained (in mM): CsF 120 mM, CsCl 20 mM, NaCl 10 mM, EGTA 10 mM, HEPES 10 mM, pH 7.2 (CsOH). Currents were recorded at 25 kHz sampling frequency and filtered at 5 kHz. Series resistance compensation was applied at 65%.
Vehicle (VEH) is the control condition where cells are exposed to 0.3% DMSO without compound. All runs include VEH controls being exposed to the same voltage protocols to assess non-compound related phenomena such as run down and then used to isolate compound dependent effects on currents.
To check for state-dependent inhibition, the following voltage-sequence was applied every 20 seconds:
From a resting membrane potential of −120 mV, the first test pulse (P1; 20 ms to −10 mV) was applied to check for channels in the Resting State followed by a brief recovery (100 ms to −120 mV), then holding the membrane voltage to V1/2 (4 seconds at voltage to obtain half the channel at Rest and half Inactivated) with a subsequent second test pulse (P2; 20 ms to −10 mV) to check for channels in the Inactivated State, followed by another brief recovery (20 ms to −120 mV) and a final third test pulse (P3; 20 ms to −10 mV) to check for recovered channels.
To check for frequency-dependent inhibition, a 10 Hz protocol and a 20 Hz protocol were applied; namely,
From a resting membrane potential of −120 mV, 40-pulses (10 ms to −10 mV) was applied at 10 Hz (at 100 ms between pulses) and then at 20 Hz (at 50 ms between pulses).
Each parameter was recorded (P1, P2, P3, P40 from 10 Hz and P40 from 20 Hz) during a control period (lasting 5 minutes) when establishing the baseline and during compound period (lasting ~12 minutes) when test compound (or vehicle) was applied. For each parameter, the value at the end of the compound period was normalized to the vehicle baseline; as follows
To adjust for any variance in the Na^+ current signal during the compound period (owing to cumulative inactivation independent of compound or shifts in biophysics over time), a dedicated segment of the recording wells in each 384 plate were dedicated to having only vehicle exposure. These vehicle-only recordings were used to correct for any apparent “run-up” or “run-down” in the experiment.
The adjusted inhibition was calculated as follows: […]
Percent inhibition was determined and IC50 values were calculated using a 4 parameter logistic model within XLFit Software (IDBS, Boston MA): F
[formula] where A and B are the maximal and minimum inhibition respectively, C is the IC50 concentration and D is the (Hill) slope.

T1 sequence (Q9Y5Y9 whole entry): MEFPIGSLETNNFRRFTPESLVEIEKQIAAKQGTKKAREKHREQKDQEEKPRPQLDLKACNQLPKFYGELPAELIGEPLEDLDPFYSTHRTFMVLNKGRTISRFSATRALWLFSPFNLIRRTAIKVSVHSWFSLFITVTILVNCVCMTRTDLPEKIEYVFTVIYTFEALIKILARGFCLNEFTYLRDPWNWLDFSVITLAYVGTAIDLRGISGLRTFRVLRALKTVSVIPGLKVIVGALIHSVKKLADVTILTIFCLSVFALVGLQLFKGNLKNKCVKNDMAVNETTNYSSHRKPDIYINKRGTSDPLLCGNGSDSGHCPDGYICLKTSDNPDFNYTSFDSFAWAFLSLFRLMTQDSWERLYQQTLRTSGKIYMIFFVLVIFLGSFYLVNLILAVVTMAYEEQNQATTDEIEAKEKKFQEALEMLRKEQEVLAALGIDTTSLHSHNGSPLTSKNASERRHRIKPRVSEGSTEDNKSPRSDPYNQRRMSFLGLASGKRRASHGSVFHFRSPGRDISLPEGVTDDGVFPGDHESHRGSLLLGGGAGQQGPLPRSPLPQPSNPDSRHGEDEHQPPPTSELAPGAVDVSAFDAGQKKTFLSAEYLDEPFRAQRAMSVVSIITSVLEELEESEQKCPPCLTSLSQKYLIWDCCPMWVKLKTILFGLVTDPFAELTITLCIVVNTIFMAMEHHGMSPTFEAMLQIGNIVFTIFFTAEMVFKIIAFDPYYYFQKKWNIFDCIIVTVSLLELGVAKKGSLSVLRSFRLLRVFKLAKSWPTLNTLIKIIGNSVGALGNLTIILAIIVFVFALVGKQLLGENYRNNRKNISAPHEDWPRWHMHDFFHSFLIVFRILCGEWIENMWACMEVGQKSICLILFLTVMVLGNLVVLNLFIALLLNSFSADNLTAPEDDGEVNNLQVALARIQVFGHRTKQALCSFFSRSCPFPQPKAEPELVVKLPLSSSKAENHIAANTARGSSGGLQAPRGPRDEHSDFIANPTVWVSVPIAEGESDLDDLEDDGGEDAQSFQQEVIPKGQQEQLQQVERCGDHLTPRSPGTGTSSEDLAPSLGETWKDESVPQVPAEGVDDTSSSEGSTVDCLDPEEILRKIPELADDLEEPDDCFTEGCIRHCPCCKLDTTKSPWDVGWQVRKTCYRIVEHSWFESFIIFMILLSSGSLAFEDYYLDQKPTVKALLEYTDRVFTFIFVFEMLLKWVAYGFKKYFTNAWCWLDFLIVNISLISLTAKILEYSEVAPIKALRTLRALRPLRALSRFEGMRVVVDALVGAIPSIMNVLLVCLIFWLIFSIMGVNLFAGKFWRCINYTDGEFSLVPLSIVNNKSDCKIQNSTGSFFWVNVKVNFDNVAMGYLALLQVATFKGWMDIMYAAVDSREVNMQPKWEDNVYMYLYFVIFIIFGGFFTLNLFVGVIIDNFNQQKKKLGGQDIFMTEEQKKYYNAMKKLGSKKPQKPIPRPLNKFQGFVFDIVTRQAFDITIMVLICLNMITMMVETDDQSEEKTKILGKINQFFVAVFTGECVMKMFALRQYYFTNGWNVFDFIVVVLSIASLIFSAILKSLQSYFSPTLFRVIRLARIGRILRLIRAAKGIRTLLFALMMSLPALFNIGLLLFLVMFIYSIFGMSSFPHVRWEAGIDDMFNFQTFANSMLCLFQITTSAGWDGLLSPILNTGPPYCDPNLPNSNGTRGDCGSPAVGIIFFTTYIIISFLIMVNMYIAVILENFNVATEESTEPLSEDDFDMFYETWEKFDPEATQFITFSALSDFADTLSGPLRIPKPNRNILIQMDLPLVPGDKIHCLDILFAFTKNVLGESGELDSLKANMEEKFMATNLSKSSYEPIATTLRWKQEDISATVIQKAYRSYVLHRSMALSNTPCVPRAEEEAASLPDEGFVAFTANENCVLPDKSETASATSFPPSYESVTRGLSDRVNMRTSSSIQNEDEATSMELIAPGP

| Structure (SMILES) | IC50 [nM] |
| --- | --- |
| Cc1cc(NC(=O)c2c(C(F)(F)F)c(C3CC3)nn2CC2(C)CC(F)(F)C2)cc(S(C)(=N)=O)n1 (single isomer, unassigned) [Example 50a, 3-cyclopropyl-1-((3,3-difluoro-1-methylcyclobutyl)methyl)-N-(2-methyl-6-(S-methylsulfonimidoyl)pyridin-4-yl)-4-(trifluoromethyl)-1H-pyrazole-5-carboxamide] | ≤ 100 |
| CC1(Cn2nc(C3(F)CC3)c(C(F)F)c2C(=O)Nc2ccc(F)c(S(C)(=N)=O)c2)CC(F)(F)C1 (single isomer, unassigned) [Example 133a, 1-((3,3-Difluoro-1-methylcyclobutyl)methyl)-4-(difluoromethyl)-N-(4-fluoro-3-(S-methylsulfonimidoyl)phenyl)-3-(1-fluorocyclopropyl)-1H-pyrazole-5-carboxamide] | ≤ 100 |
| CC1(Cn2nc(C3CC3)c(C(F)(F)F)c2C(=O)Nc2cncc(S(C)(=N)=O)c2)CC(F)(F)C1 (single isomer, unassigned) [Example 46b, 3-cyclopropyl-1-((3,3-difluoro-1-methylcyclobutyl)methyl)-N-(5-(S-methylsulfonimidoyl)pyridin-3-yl)-4-(trifluoromethyl)-1H-pyrazole-5-carboxamide] | ≤ 100 |
| CC1(Cn2nc(C3CC3(F)F)c(C(F)(F)F)c2C(=O)Nc2ccnc(S(C)(=N)=O)c2)CC(F)(F)C1 (single isomer, unassigned) [Example 63c, 1-((3,3-Difluoro-1-methylcyclobutyl)methyl)-3-(2,2-difluorocyclopropyl)-N-(2-(S-methylsulfonimidoyl)pyridin-4-yl)-4-(trifluoromethyl)-1H-pyrazole-5-carboxamide] | ≤ 100 |
| COC12CC(c3nn(CC4(C)CC(F)(F)C4)c(C(=O)Nc4ccnc(S(C)(=N)=O)c4)c3C(F)(F)F)(C1)C2 (stereo not shown) [Example 122, 1-((3,3-Difluoro-1-methylcyclobutyl)methyl)-3-(3-methoxybicyclo[1.1.1]pentan-1-yl)-N-(2-(S-methylsulfonimidoyl)pyridin-4-yl)-4-(trifluoromethyl)-1H-pyrazole-5-carboxamide] | ≤ 100 |
| CC1(Cn2nc(C34CC(F)(C3)C4)c(C(F)F)c2C(=O)Nc2cccc(S(C)(=N)=O)c2)CC(F)(F)C1 (single isomer, unassigned) [Example 113a, 1-((3,3-Difluoro-1-methylcyclobutyl)methyl)-4-(difluoromethyl)-3-(3-fluorobicyclo[1.1.1]pentan-1-yl)-N-(3-(S-methylsulfonimidoyl)phenyl)-1H-pyrazole-5-carboxamide] | ≤ 100 |
| CC1(Cn2nc(C3(F)CC3)c(C(F)(F)F)c2C(=O)Nc2ccc(F)c(S(C)(=N)=O)c2)CC(F)(F)C1 (single isomer, unassigned) [Example 126b, 1-((3,3-Difluoro-1-methylcyclobutyl)methyl)-N-(4-fluoro-3-(S-methylsulfonimidoyl)phenyl)-3-(1-fluorocyclopropyl)-4-(trifluoromethyl)-1H-pyrazole-5-carboxamide] | ≤ 100 |
| CS(=N)(=O)c1cc(NC(=O)c2c(C(F)(F)F)c(C3CC3)nn2CC2CCC23CNC3)ccn1 (single isomer, unassigned) [Example 153c, 1-((2-Azaspiro[3.3]heptan-5-yl)methyl)-3-cyclopropyl-N-(2-(S-methylsulfonimidoyl)pyridin-4-yl)-4-(trifluoromethyl)-1H-pyrazole-5-carboxamide] | 1000 to 10000 |
| CS(=N)(=O)c1cc(NC(=O)c2c(C(F)(F)F)c(C3CC3)nn2CC2CCC23CNC3)ccn1 (single isomer, unassigned) [Example 153b, 1-((2-Azaspiro[3.3]heptan-5-yl)methyl)-3-cyclopropyl-N-(2-(S-methylsulfonimidoyl)pyridin-4-yl)-4-(trifluoromethyl)-1H-pyrazole-5-carboxamide] | 1000 to 10000 |
| CS(=N)(=O)c1cc(NC(=O)c2c(C(F)(F)F)c(C3CC3)nn2C[C@@H]2CCC(F)(F)C2)ccn1 (single isomer, unassigned) [Example 17d] | ≤ 100 |
| CC1(Cn2nc(C3CC3)c(C(F)(F)F)c2C(=O)Nc2ccnc(S(C)(=O)=NC[C@@H](O)CO)c2)CC(F)(F)C1 (stereo partly drawn) [Example 152, 3-Cyclopropyl-1-((3,3-difluoro-1-methylcyclobutyl)methyl)-N-(2-(N—((R)-2,3-dihydroxypropyl)-S-methylsulfonimidoyl)pyridin-4-yl)-4-(trifluoromethyl)-1H-pyrazole-5-carboxamide] | ≤ 100 |
| CN=S(C)(=O)c1cc(NC(=O)c2c(C)c(C(C)(F)F)nn2CC2(C)CC(F)(F)C2)ccn1 (single isomer, unassigned) [Example 34b, 1-((3,3-Difluoro-1-methylcyclobutyl)methyl)-3-(1,1-difluoroethyl)-N-(2-(N,S-dimethylsulfonimidoyl)pyridin-4-yl)-4-methyl-1H-pyrazole-5-carboxamide] | ≤ 100 |
| CC1(Cn2nc(C(C)(C)C)c(C(F)(F)F)c2C(=O)Nc2ccnc(S(C)(=N)=O)c2)CC(F)(F)C1 (single isomer, unassigned) [Example 143a, 3-(Tert-butyl)-1-((3,3-difluoro-1-methylcyclobutyl)methyl)-N-(2-(S-methylsulfonimidoyl)pyridin-4-yl)-4-(trifluoromethyl)-1H-pyrazole-5-carboxamide] | ≤ 100 |
| CS(=N)(=O)c1cc(NC(=O)c2c(C(F)(F)F)c(C3CC3)nn2CC2C(F)(F)C23CCC3)ccn1 (single isomer, unassigned) [Example 136c, 3-Cyclopropyl-1-((2,2-difluorospiro[2.3]hexan-1-yl)methyl)-N-(2-(S-methylsulfonimidoyl)pyridin-4-yl)-4-(trifluoromethyl)-1H-pyrazole-5-carboxamide] | ≤ 100 |
| CS(=N)(=O)c1cc(NC(=O)c2c(C(F)(F)F)c(C34CC(C3)C4)nn2CC2C[C@@H]2C(F)F)ccn1 (stereo in doubt) [Example 146, 3-(Bicyclo[1.1.1]pentan-1-yl)-1-(((trans)-2-(difluoromethyl)cyclopropyl)methyl)-N-(2-(S-methylsulfonimidoyl)pyridin-4-yl)-4-(trifluoromethyl)-1H-pyrazole-5-carboxamide] | ≤ 100 |
| CC1(Cn2nc(C3(C(F)(F)F)CC3)c(C(F)(F)F)c2C(=O)Nc2ccnc(S(C)(=N)=O)c2)CC(F)(F)C1 (single isomer, unassigned) [Example 144b, 1-((3,3-Difluoro-1-methylcyclobutyl)methyl)-N-(2-(S-methylsulfonimidoyl)pyridin-4-yl)-4-(trifluoromethyl)-3-(1-(trifluoromethyl)cyclopropyl)-1H-pyrazole-5-carboxamide] | ≤ 100 |
| CS(=N)(=O)c1cc(NC(=O)c2c(C(F)(F)F)c(C3CC3)nn2CC23CCC(F)(CC2)C3)ccn1 (single isomer, unassigned) [Example 106b, 3-cyclopropyl-1-((4-fluorobicyclo[2.2.1]heptan-1-yl)methyl)-N-(2-(S-methylsulfonimidoyl)pyridin-4-yl)-4-(trifluoromethyl)-1H-pyrazole-5-carboxamide] | ≤ 100 |
| CS(=N)(=O)c1cc(NC(=O)c2c(C(F)(F)F)c(C3CC3)nn2CC2CCC23CNC3)ccn1 (single isomer, unassigned) [Example 153a, 1-((2-Azaspiro[3.3]heptan-5-yl)methyl)-3-cyclopropyl-N-(2-(S-methylsulfonimidoyl)pyridin-4-yl)-4-(trifluoromethyl)-1H-pyrazole-5-carboxamide] | 1000 to 10000 |
| CC1(Cn2nc(C3CC3F)c(C(F)(F)F)c2C(=O)Nc2ccnc(S(C)(=N)=O)c2)CC(F)(F)C1 (single isomer, unassigned) [Example 62b, 1-((3,3-Difluoro-1-methylcyclobutyl)methyl)-3-(2-fluorocyclopropyl)-N-(2-(S-methylsulfonimidoyl)pyridin-4-yl)-4-(trifluoromethyl)-1H-pyrazole-5-carboxamide] | ≤ 100 |
